Reference: PMC11079024, “Identification of a family of species-selective complex I inhibitors as potential anthelmintics” (Nature Communications, 2024)
Where two headings read alike, the source gives them in different places.

Experiments:
[1] = test system: L1 wild-type C. elegans; test: microbe, parasite or virus in culture; conditions: Caenorhabditis elegans, read-out: C. elegans KCN Survival Assay LC50, estimated from fitted dose-response curves; mean of at least two biological replicates
[2] = in vitro; conditions: human
[3] = target: B. taurus (heart) complex I (Bos taurus, UniProt P03887+P17694+P42026); test: biochemical; assay type: biochemical; conditions: for IC50: B. taurus heart mitochondria, read-out: B. taurus Complex I IC50; for Log IC50 B. taurus complex I: log10 of IC50 in µM, B. taurus mitochondria
Sequence of B. taurus (heart) complex I (P03887 whole entry): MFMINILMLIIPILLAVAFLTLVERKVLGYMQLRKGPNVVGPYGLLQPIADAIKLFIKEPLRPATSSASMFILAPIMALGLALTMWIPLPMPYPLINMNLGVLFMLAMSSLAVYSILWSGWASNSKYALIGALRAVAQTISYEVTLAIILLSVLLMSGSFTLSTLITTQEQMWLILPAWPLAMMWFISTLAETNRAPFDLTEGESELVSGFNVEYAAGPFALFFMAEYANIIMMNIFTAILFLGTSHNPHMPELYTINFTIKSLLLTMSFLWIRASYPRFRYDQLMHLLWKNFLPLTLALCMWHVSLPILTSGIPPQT
Sequence of B. taurus (heart) complex I (P17694 34-463): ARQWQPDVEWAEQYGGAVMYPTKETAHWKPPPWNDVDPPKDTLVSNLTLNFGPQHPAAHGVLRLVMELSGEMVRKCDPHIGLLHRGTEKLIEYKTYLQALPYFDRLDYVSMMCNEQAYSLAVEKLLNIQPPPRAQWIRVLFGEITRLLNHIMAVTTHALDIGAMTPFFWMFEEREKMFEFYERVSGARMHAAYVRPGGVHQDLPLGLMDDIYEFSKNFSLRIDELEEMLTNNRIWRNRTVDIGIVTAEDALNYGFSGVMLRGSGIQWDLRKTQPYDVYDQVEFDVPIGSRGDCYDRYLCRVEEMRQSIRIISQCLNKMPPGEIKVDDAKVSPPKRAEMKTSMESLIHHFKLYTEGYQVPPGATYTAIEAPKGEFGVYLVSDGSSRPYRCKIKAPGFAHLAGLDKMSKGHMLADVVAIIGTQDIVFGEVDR
Sequence of B. taurus (heart) complex I (P42026 38-216): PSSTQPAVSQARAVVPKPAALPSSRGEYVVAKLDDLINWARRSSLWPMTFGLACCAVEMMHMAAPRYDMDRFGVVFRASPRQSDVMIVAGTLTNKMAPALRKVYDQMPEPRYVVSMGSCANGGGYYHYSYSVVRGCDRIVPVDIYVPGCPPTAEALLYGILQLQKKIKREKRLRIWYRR
Experimental: Six 8–10-week-old C57Bl/6 female mice (Charles River) were freshly dissected, and their livers and hearts collected into separate 1.5 mL microcentrifuge tubes. Organs were flash-frozen in liquid nitrogen and stored at −80 °C prior to use. The heart of a freshly slaughtered adult cow was obtained from a local abattoir (Peel Sausage Inc.), chopped into ~1-inch cubes and collected into 50 mL falcon tubes. Falcon tubes were flash-frozen in a container of dry ice and stored at −80 °C prior to use. Isolation of mitochondria from all mammalian tissue was carried out following the protocol described above. However, due to size, the initial homogenization of tissue was performed by 15 strokes in a dounce homogenizer (mouse heart) or with several 5 s pulses in small Nutribullet blender (cow heart). All mouse protocols for mouse care and dissection were reviewed and approved by the University of Toronto Animal Care Committee, in accordance with the Canadian Council on Animal Care.
(§1) The enzymatic activities of individual ETC complexes (I-IV) were assessed spectrophotometrically in isolated mitochondria using a Varioskan LUX Multimode plate reader (ThermoFisher Scientific). Mitochondrial pellets previously isolated were thawed on ice and resuspended in ice-cold isolation buffer (250 mM sucrose, 10 mM Tris (pH 7.5), 1 mM EDTA). The BCA assay (Walker, 1994) was used to quantify the protein concentration of mitochondria suspensions; solutions were diluted to a concentration of 0.2 mg/mL for use in all assays. For the complex I assay, mitochondria pellets were freeze-thawed on ice three times to increase enzyme accessibility. […] 20 μL mitochondria suspension was then added/mixed with a pipette to initiate the reaction. Immediately following the addition of mitochondria, absorbance was measured (complex I and II: 600 nm; complex III and IV: 550 nm) in 30 s intervals over 15 min. Enzymatic activity was determined in each reaction by plotting absorbance versus time and calculating the slope of the curve during the initial linear phase of the reaction. […] Percent activity of each complex was calculated by dividing the enzyme-specific activity of each well by the enzyme-specific activity of the corresponding solvent controls.
(§2) Chemical solutions were prepared in complex I assay buffer composed of 25 mM KPi buffer (pH 7.5), 3 mg/mL bovine serum albumin (BSA), 80 μM NADH, 60 μM decylubiquinone, 160 μM DCIP, 2 μM antimycin A and 2 mM KCN.
For preliminary screens of hit compounds, compounds were screened at 100 μM; data are the average of at least three biological replicates. The complex I and II activity assays were used for additional dose-response experiments. […] For dose responses of benzimidazole analogs, data represent the average of two biological replicates. For all other dose-responses, data represent the average of at least three biological replicates.

[4] = test system: ben-1 mutant (ECA882) C. elegans; test: microbe, parasite or virus in culture; conditions: Caenorhabditis elegans
Experimental: Liquid development and viability assays were adapted from a previously established chemical screening protocol (Burns et al.)[24]. In brief, a saturated culture of E. coli HB101 was concentrated 2-fold in liquid NGM and 40 μL of this suspension was distributed to each well of a 96-well flat-bottom culture plate. 0.5 μL chemical solution (or DMSO alone) was added to each well (1% DMSO v/v) using either a multi-channel pipette or a pinning tool (V&P Scientific). L1 worms synchronized from an embryo preparation performed the day prior were diluted to a concentration of ~2 worms/μL in M9 buffer; 10 μL worm suspension was then added to each well. Culture plates were sealed with parafilm and placed in a plastic container lined with wet paper towels to prevent evaporation. Containers were then incubated for 6 days at 20 °C with shaking at 165 rpm. Following incubation, 300 μL M9 was added to each well to decrease the turbidity of the HB101-NGM suspension. Single images of each microplate well were then taken on a Nikon Ti Eclipse inverted microscope (Nikon NIS Elements AR). Images were processed using Python scripts to isolate worm-associated pixels from background. Scores of worm development and viability were determined as the sum of worm-associated pixels in each well. Development/viability scores for each well were divided by the development /viability scores for the corresponding DMSO controls, resulting in a relative viability value for each chemical. At least three biological replicates were performed for each dose-response experiment; relative viability values were averaged across replicates. […]
anthelmintics. a. Chemical structures of four commercial benzimidazole anthelmintics (e.g., albendazole, […]
Dose response of four commercial […]
elegans strains: N2, wild type; ECA882, deletion (ben-1); ECA917, F200Y (ben-1); ECA1075, F167Y (ben-1); ECA1080, E198A (ben-1); CB3474, G104D (ben-1). The colour-coded scale denotes the phenotypic outcome of drug treatment (e.g., motility or viability) relative to DMSO controls; white/pale- […]
death and arrested development. c. […]
benzimidazole anthelmintics (blue) were conducted in C. elegans development and viability assays for wild type (N2) and ben-1 mutant (ECA882) C. elegans (see Supplementary Date File 1).
All data used for generation of dose-response curves is the mean of at least three […]
Supplementary Figure 7 (continued). Davie et al.

[5] = target: C. elegans (N2) complex I (NADH:ubiquinone oxidoreductase) (Caenorhabditis elegans, UniProt P24887+Q93873+Q94360); test: biochemical; assay type: biochemical; conditions: for Log IC50 C. elegans complex I: log10 of IC50 in µM, C. elegans mitochondria
Sequence of C. elegans (N2) complex I (NADH:ubiquinone oxidoreductase) (Q94360 17-199): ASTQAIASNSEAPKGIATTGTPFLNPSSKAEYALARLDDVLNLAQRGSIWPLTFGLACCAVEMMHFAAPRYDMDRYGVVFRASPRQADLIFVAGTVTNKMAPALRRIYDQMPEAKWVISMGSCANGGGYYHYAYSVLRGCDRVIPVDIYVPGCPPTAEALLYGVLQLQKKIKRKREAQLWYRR
Sequence of C. elegans (N2) complex I (NADH:ubiquinone oxidoreductase) (P24887 whole entry): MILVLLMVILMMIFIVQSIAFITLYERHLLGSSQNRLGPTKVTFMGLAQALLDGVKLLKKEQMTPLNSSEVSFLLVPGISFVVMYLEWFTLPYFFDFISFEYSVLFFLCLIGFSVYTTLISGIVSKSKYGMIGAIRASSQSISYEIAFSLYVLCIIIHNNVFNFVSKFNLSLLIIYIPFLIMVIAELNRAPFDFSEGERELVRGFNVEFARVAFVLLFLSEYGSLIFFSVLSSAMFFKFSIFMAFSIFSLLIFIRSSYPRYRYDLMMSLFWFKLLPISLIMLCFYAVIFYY
Sequence of C. elegans (N2) complex I (NADH:ubiquinone oxidoreductase) (Q93873 31-482): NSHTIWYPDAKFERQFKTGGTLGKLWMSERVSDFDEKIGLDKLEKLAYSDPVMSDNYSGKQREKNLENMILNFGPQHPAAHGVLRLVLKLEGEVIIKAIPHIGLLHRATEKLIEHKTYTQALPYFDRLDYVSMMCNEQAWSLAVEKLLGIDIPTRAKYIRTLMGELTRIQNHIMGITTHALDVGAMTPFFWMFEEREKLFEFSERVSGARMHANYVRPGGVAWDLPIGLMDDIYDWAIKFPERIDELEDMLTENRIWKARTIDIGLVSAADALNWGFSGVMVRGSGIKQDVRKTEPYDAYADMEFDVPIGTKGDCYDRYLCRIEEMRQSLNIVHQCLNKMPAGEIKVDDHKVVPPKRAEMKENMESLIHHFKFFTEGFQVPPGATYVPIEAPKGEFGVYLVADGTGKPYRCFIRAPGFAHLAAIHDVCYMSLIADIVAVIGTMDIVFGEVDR
Experimental: Mitochondria were isolated from the following free-living nematode strains: C. elegans—N2, CB3474, ECA882, ECA917, ECA1075, ECA1080; C. briggsae—AF16; P. pacificus—PS312; and P. hermaphrodita—B178. With the exception of the P. hermaphrodita strain B178, adult worms of each strain were grown in bulk through liquid culture to obtain mitochondria in sufficient quantities. Due to poor growth in liquid media, mixed stage populations of P. hermaphrodita were washed off and collected from NGM plates seeded with OP50. The isolation of mitochondria from all free-living nematode strains followed the protocol previously outlined in Burns et al.[24]. In brief, a 1 L saturated culture of E. coli HB101 was concentrated 20-fold in 50 mL complete S-medium. ~500,000 L1 worms synchronized from an embryo preparation performed the day prior were added to the S-media/HB101 suspension and grown to adulthood over the course of 3.5 days at 20 °C with shaking at 165 rpm. Following growth, worms were collected in 10 ×15 mL conical tubes and washed 7 times in M9 buffer. Worm suspensions were then combined into a single 15 mL conical tube and diluted to a final volume of 15 mL with M9 buffer. 1 mL aliquots of worm suspension were then distributed to 15 × 1.5 mL screw-cap microcentrifuge tubes and were pelleted at 500 g for 1 min. Excess M9 was aspirated without disturbing the worm pellet. 600 μL ice-cold isolate buffer A (250 mM sucrose, 10 mM Tris (pH 7.5), 1 mM EDTA, 1 mM PMSF (freshly prepared)) and 300 μL cold glass beads were then added to each tube. Tubes were incubated on ice for 10 min, and the worms were then lysed by bead beating (6 x 30 s, with 1 min cooling intervals). Tubes containing worm lysate were centrifuged at 1,000 g for 10 min at 4 °C and the supernatant was transferred to 15 new microcentrifuge tubes on ice. The tubes were centrifuged a second time at 1,000 g for 10 min at 4 °C and the supernatant was once again transferred to 15 new microcentrifuge tubes on ice. These tubes were then centrifuged at 16,000 g for 10 min at 4 °C. The resulting mitochondrial pellet was washed twice by re-suspension in 300 μL of ice-cold isolate buffer B (250 mM sucrose, 10 mM Tris (pH 7.5), 1 mM EDTA). Following the final wash, isolation buffer was aspirated from each tube and the pellets were flash-frozen in ethanol/dry ice and stored at −80 °C until needed.
as §1, §2
For preliminary screens of hit compounds, compounds were screened at 100 μM; data are the average of at least three biological replicates.

[6] = test system: L1 wild-type C. elegans; conditions: […]; for Relative Motility: relative to DMSO controls, single biological replicate
[7] = read-out: C. elegans (ben-1) Development & Viability Assay LC50
[8] = read-out: C. elegans ben-1 log10 LC50 (converted)
[9] = in vitro complex I dose response on C. elegans mitochondria, average of at least two biological replicates, fit in R (DRC), read-out: IC50 C. elegans complex I
[10] = wild-type (N2) mitochondria, read-out: C. elegans Complex I IC50
[11] = wild-type C. elegans mitochondria, read-out: C. elegans Complex I IC50
[12] = 50 μM compound, hit = relative motility below 0.25 3 hours after removal of KCN
[13] = wild-type C. elegans mitochondria, estimated from fitted dose-response curves, read-out: C. elegans Complex I IC50
[14] = 50 μM, KCN survival assay, hit = relative motility below 0.25
[15] = 50 μM, worm motility 3 hours after the removal of KCN (endpoint)
[16] = HEK293 Cell Viability Assay LC50, HEK293 cells, estimated from fitted dose-response curves, mean of at least two biological replicates
[17] = 50 μM compound, worm motility 3 hours after removal of KCN

SMILES	LC50 [1] [µM]	CC50 at 2 days [2] [µM]	IC50 [3] [µM]	Log IC50 B. taurus complex I [3] [µM]	LC50 [4, 7] [µM]	LC50 [4, 8] [µM]	IC50 [5, 9] [µM]	Log IC50 C. elegans complex I [5] [µM]	IC50 [5, 10] [µM]	IC50 [5, 11] [µM]	Screen "Hit" [6, 12]	IC50 [5, 13] [µM]	Screen "Hit" [6, 14]	Relative Motility [6, 15]	CC50 at 2 days [2, 16] [µM]	IC50 ([3]; estimated from fitted dose-response curves) [µM]	Relative Motility [6, 17]	LC50 ([4]; read-out: C. elegans ben-1 LC50) [µM]
Cc1nc2ccccc2n1Cc1ccc(C(C)(C)C)cc1 [Compound 5521938]	11	35.3	1.18	0.07	272	272	2.57	0.41	2.57	2.57	Y (hits were identified as compounds that reduced relative motility below 0.25 (75% reduction))							
c1ccc2[nH]c(CSc3nc4ccccc4o3)nc2c1 [Compound 5668941]	26.8				123	123	19.6	1.29				19.6	Y (hits were identified as compounds that reduced relative motility below 0.25 (75% reduction))	0.130				
CCn1c(/C=C/c2ccc(F)cc2)nc2ccccc21 [Compound 7147614]	14.4				77	77.1						> 75	Y (hits were identified as compounds that reduced relative motility below 0.25 (75% reduction))	0.130	41			
COc1ccccc1/C=C/c1nc2ccccc2[nH]1 [Compound 7148894]	9.02				188	188						> 75	Y (hits were identified as compounds that reduced relative motility below 0.25 (75% reduction))	0.170	< 12.5			
Cc1nc2ccccc2n1Cc1ccc(F)cc1 [Compound 7360886]	27	> 100		0.66	170	169	0.93	-0.03	0.93		Y (hits were identified as compounds that reduced relative motility below 0.25 (75% reduction))	0.93				4.54		
CCc1ccc(CNc2nc3ccccc3n2C)cc1 [STK498539]	30.5				214	214	40.8	1.61		40.8	Y (hits were identified as compounds that reduced relative motility below 0.25 (75% reduction))						0.042	
c1ccc(-c2noc(CCCCc3nc4ccccc4[nH]3)n2)cc1 [STK633241]	19.4		18.5	1.27	> 1000	> 500	20.6	1.31		20.6	Y (hits were identified as compounds that reduced relative motility below 0.25 (75% reduction))							> 500
C(=C\c1nc2ccccc2[nH]1)/c1ccccc1 [STK871091]	15				148	148					Y (hits were identified as compounds that reduced relative motility below 0.25 (75% reduction))	> 75					0.008	
CCc1ccc(OC(C)c2nc3ccccc3[nH]2)cc1 (stereo not shown) [STK914290]	22.4				227	228	71.3	1.85		71.3	Y (hits were identified as compounds that reduced relative motility below 0.25 (75% reduction))						0.082	
